Data from patent US8969542B2, “HPV polyepitope constructs and uses thereof” (priority 2007, dated 2015).
Where a SMILES comes first, the peptide text is derived from it.

Columns and labels:
[1] = system: CD8+ spleen cells of HLA transgenic mice (HLA-A01/Kb, F1 HLA-A02/KbxBalb/c, HLA-A11/Kb, HLA-A24/Kb); assay: Immunogenicity after peptide pool/IFA immunization, direct ex vivo IFNγ ELISPOT; type: in vivo, mouse; details: for Peptide Pool SFC/10^6 cells Delta / Peptide Pool SFC/10^6 cells Ratio: immunization with pool of peptides emulsified in IFA, IFNγ ELISPOT; for Peptide Pool SFC/10^6 cells Delta: HLA transgenic mice (HLA-A01/A02/A11/A24), CD8+ cells restimulated with WT peptide 10 μg/mL; for Peptide Pool SFC/10^6 cells Ratio: HLA transgenic mice, response ratio, WT peptide 10 μg/mL; for Delta SFC/10^6 cells / Ratio: Peptide Pool
Method: CTL binding epitopes were evaluated for their immunogenicity in different HLA transgenic mice. To this, a single immunization with CTL peptide pools together with a common HTL epitope emulsified in IFA was performed and up to 14 days later, CD8+ spleen cells were isolated and evaluated for epitope specificity using a direct ex vivo IFNγ ELISPOT assay.
Peptides were dissolved in DMSO at a concentration of 10 mg/mL. For each of the 4 DNA constructs, the corresponding HLA-restricted peptides were pooled per HLA type (5 to 7 CTL peptides/pool). A known HTL peptide ([…]) was added and the peptide pools were diluted in PBS to the required peptide concentration (i.e. 25 μg of each CTL peptide and 120 μg HTL peptide in 50 μl). After adding an equal volume of IFA (Pierce, lot DG56079), the mixture was emulsified by forcing it through a small orifice. Mice were immunized subcutaneously at the base of the tail with 50 μl peptide/IFA mixture.
As negative control for the peptide-immunized mice, 18 mice (in total) were injected with a PBS/IFA mixture.
(§1) Mice were euthanized and spleen cells (SPC) were isolated 13 days after immunization. […] Spleen cells of DNA- and peptide-immunized HLA-A11/Kb mice were analyzed individually. SPC of all negative control mice were pooled per 2 mice, resulting in 3 data points for each peptide tested.
(§2) A direct ex vivo IFNγ ELISPOT assay was used as surrogate CTL readout. Basically, purified CD8+ cells were incubated with the individual HPV-specific HLA-restricted peptides (10 μg/mL) loaded on the appropriate antigen presenting cells (APC), in anti-mouse IFNγ antibody-coated ELISPOT plates. […] After 20 h incubation, IFNγ-producing cells were visualized by further developing the plates with biotinylated anti-mouse IFNγ antibody, streptavidin-HRP and AEC as substrate.
(§3) Some of the CTL epitopes included in the DNA constructs are analoged sequences of the wild type viral epitopes. For these particular epitopes, only the wild type sequences were used as in vitro stimulus for CTL readout.

[2] = system: CD8+ spleen cells of HLA transgenic mice (HLA-A01/Kb, F1 HLA-A02/KbxBalb/c, HLA-A11/Kb, HLA-A24/Kb); assay: Immunogenicity after HPV DNA construct immunization, direct ex vivo IFNγ ELISPOT; type: in vivo, mouse; details: for ICCG6137 SFC/10^6 cells Delta / ICCG6137 SFC/10^6 cells Ratio: immunization with DNA construct ICCG 6137; for ICCG6137 SFC/10^6 cells Delta / ICCG6138 SFC/10^6 cells Delta: HLA transgenic mice (HLA-A01/A02/A11/A24), CD8+ cells restimulated with WT peptide 10 μg/mL; for ICCG6137 SFC/10^6 cells Delta / ICCG6137 SFC/10^6 cells Ratio / ICCG6138 SFC/10^6 cells Delta / ICCG6138 SFC/10^6 cells Ratio: IFNγ ELISPOT; for ICCG6137 SFC/10^6 cells Ratio / ICCG6138 SFC/10^6 cells Ratio: HLA transgenic mice, response ratio, WT peptide 10 μg/mL; for ICCG6138 SFC/10^6 cells Delta / ICCG6138 SFC/10^6 cells Ratio: immunization with DNA construct ICCG 6138
Method: The immunogenicity of HPV HLA class I-restricted epitopes encoded in the DNA constructs was tested in the relevant HLA transgenic mice. […] To ensure an equal distribution of mice between different groups, a randomisation procedure based on body weight was performed. Female and male mice (age between 8 and 24 weeks) were ranked by body weight, extreme light or heavy animals were excluded. The remaining animals were grouped by sequentially assigning animals for the 2 experiments.
Mice were pre-treated with cardiotoxin (Sigma, C9759) on day −4 by bilateral intramuscular injection of 100 μl (2×50 μl) of a 10 μM cardiotoxin solution. Four days later, all mice were immunised with 100 μg HPV-DNA plasmid (diluted to 1 mg/ml in PBS) by bilateral injection of 50 μg in the m. tibialis anterior. […]
as §1, §2, §3

[3] = HLA-A24 epitopes, HLA-A24/Kb mice, median of mouse pools
[4] = HLA-A24 epitopes, HLA-A24/Kb mice, DNA construct ICCG6149, median of mouse pools
[5] = HLA-A24 epitopes, HLA-A24/Kb mice, DNA construct ICCG6150, median of mouse pools
[6] = HLA-A02 epitopes, F1 HLA-A02/KbxBalb/c mice, median of mouse pools
[7] = HLA-A02 epitopes, F1 HLA-A02/KbxBalb/c mice, DNA construct ICCG6149, median of mouse pools
[8] = HLA-A02 epitopes, F1 HLA-A02/KbxBalb/c mice, DNA construct ICCG6150, median of mouse pools
[9] = HLA-A11 epitopes, HLA-A11/Kb mice, median
[10] = HLA-A11 epitopes, HLA-A11/Kb mice, DNA construct ICCG6149, median
[11] = HLA-A11 epitopes, HLA-A11/Kb mice, DNA construct ICCG6150, median
[12] = HLA-A01 epitopes, HLA-A01/Kb mice, median of mouse pools
[13] = HLA-A01 epitopes, HLA-A01/Kb mice, DNA construct ICCG6150, median of mouse pools

Compound	Peptide Pool SFC/10^6 cells Delta [1] [SFC/10^6 cells]	Peptide Pool SFC/10^6 cells Ratio [1]	ICCG6137 SFC/10^6 cells Delta [2] [SFC/10^6 cells]	ICCG6138 SFC/10^6 cells Delta [2] [SFC/10^6 cells]	ICCG6138 SFC/10^6 cells Ratio [2]	Delta SFC/10^6 cells [1, 3] [SFC/10^6 cells]	Delta SFC/10^6 cells [2, 4] [SFC/10^6 cells]	Delta SFC/10^6 cells [2, 5] [SFC/10^6 cells]	other results
153 (HYTNWKFIY; Human papilloma virus) [compound 153]	155	2.7	19	58	1.3				ICCG6137 SFC/10^6 cells Ratio [2]: 1.3
147 (LQDVSIACVY; Human papillomavirus type 45) [compound 147]	1	1.0		6	1.4				
CSCC[C@H](N)C(=O)N[C@@H](Cc1ccc(O)cc1)C(=O)N[C@H](C(=O)N[C@@H](CS)C(=O)N[C@@H](CS)C(=O)N[C@@H](Cc1c[nH]cn1)C(=O)N[C@H](C(=O)N1CCC[C@H]1C(=O)N[C@@H](CC(C)C)C(=O)O)C(C)C)C(C)C [compound 42] (H-MYVCCHVPL-OH; N-terminus and C-terminus assumed)						1	1	1	
148 (FAFTDLTIV; Human papillomavirus type 31) [compound 148]	100	8.5	1	1	1.0				ICCG6137 SFC/10^6 cells Ratio [2]: 1.0
145 (CYSVYGTTL; Human papillomavirus type 16-derived epitope) [compound 145]						55	23	90	Ratio [1, 3]: 1.8; Ratio [2, 4]: 1.4; Ratio [2, 5]: 2.6
CC(C)C[C@H](NC(=O)[C@H](CS)NC(=O)[C@@H](NC(=O)[C@H](CO)NC(=O)[C@H](Cc1ccccc1)NC(=O)[C@H](CS)NC(=O)[C@H](CC(C)C)NC(=O)[C@H](CC(C)C)NC(=O)[C@@H](N)Cc1ccccc1)C(C)C)C(=O)O [compound 75] (H-FLLCFSVCL-OH; N-terminus and C-terminus assumed)	75		1	1					
139 (CYSLYGTTL; Human papillomavirus type 16) [compound 139]						1	3	1	Ratio [1, 3]: 1.0; Ratio [2, 4]: 1.0; Ratio [2, 5]: 1.0
149 (YQFAFKDLCI; Human papillomavirus type 45) [compound 149]	10	2.0	3	1	1.0				ICCG6137 SFC/10^6 cells Ratio [2]: 1.1
135 (TIHDIILECV; Human papillomavirus type 16) [compound 135]									Delta SFC/10^6 cells [1, 6]: 80 SFC/10^6 cells; Ratio [1, 6]: 10.0; Delta SFC/10^6 cells [2, 7]: 562 SFC/10^6 cells; Ratio [2, 7]: 86.7; Delta SFC/10^6 cells [2, 8]: 358 SFC/10^6 cells; Ratio [2, 8]: 24.8
136 (KLTNTGLYNL; Human papillomavirus type 18) [compound 136]									Delta SFC/10^6 cells [1, 6]: 280 SFC/10^6 cells; Ratio [1, 6]: 29.0; Delta SFC/10^6 cells [2, 7]: 6 SFC/10^6 cells; Ratio [2, 7]: 2.0; Delta SFC/10^6 cells [2, 8]: 20 SFC/10^6 cells; Ratio [2, 8]: 2.7
CC(C)C[C@H](NC(=O)[C@H](CC(C)C)NC(=O)[C@@H](NC(=O)[C@H](CS)NC(=O)[C@H](Cc1ccccc1)NC(=O)[C@H](CS)NC(=O)[C@H](CC(C)C)NC(=O)[C@H](CC(C)C)NC(=O)[C@@H](N)Cc1ccccc1)C(C)C)C(=O)O [compound 51] (H-FLLCFCVLL-OH; N-terminus and C-terminus assumed)	195		8	8					
137 (DSVYGDTLEK; Human papillomavirus type 18) [compound 137]									Delta SFC/10^6 cells [1, 9]: 40 SFC/10^6 cells; Ratio [1, 9]: 1.1; Delta SFC/10^6 cells [2, 10]: 15 SFC/10^6 cells; Ratio [2, 10]: 1.2; Delta SFC/10^6 cells [2, 11]: 1 SFC/10^6 cells; Ratio [2, 11]: 1.0
144 (LYGVSFTEL; Human papillomavirus type 16-derived epitope) [compound 144]						5	3	1	Ratio [1, 3]: 1.1; Ratio [2, 4]: 1.0; Ratio [2, 5]: 1.0
132 (ISEYRHYCY; Human papillomavirus type 16) [compound 132]									Delta SFC/10^6 cells [1, 12]: 2 SFC/10^6 cells; Ratio [1, 12]: 1.1; Delta SFC/10^6 cells [2, 13]: 3 SFC/10^6 cells; Ratio [2, 13]: 1.1
152 (SVYGTTLEK; Human papillomavirus type 31) [compound 152]	730	6.2	1050	1150	9.7				ICCG6137 SFC/10^6 cells Ratio [2]: 5.4
140 (PYAVCDKCL; Human papillomavirus type 16) [compound 140]						150	3	1	Ratio [1, 3]: 4.2; Ratio [2, 4]: 1.1; Ratio [2, 5]: 1.0
